Laboratory results as given in US20150133492A1, “N-desmethyldauricine, A Novel Autophagic Enhancer for Treatment of Cancers and Neurodegenerative Conditions Thereof” (Macau University of Science and Technology, priority 2013, published 2015).

Assays:
[1] = test system: EGFP-tagged mutant huntingtin (Q23, Q55, Q74); assay: Removal of mutant huntingtin by immunoblotting; type: cell-based; settings: PC 12, 7.5 μM, 24 hours
Experimental: PC 12 cells were transfected transiently with EGFP-HDQ23/55/74 (Q23, Q55, Q74) plasmids for 24 hours using Lipofectamine Plus LTX reagent (Invitrogen) according to the manufacturer's protocol. The transfected cells were then treated with N-desmethyldauricine for 24 hours. The removal of mutant huntingtin, (Q23, Q55, Q74) were then quantitated by immunoblotting with antibody against EGFP.

HeLa cells = assay: RT2 Profiler autophagy PCR array; type: cell-based, human
From the text: For PCR array analysis, N-desmethyldauricine treated HeLa cells were used to obtain the total RNA by Qiagen RNeasy® Mini Kit (Qiagen). The autophagy pathway specific RT-PCR array was used to evaluate the potential alterations of related genes after N-desmethyldauricine treatments in HeLa cells. The autophagy array comprised 87 genes selected based on their involvement in regulating autophagy induction. There were 5 housekeeping genes served as positive controls. Total RNA was reverse transcripted using the RT2 First Strand Kit. Real-time PCR reactions were carried out on ABI 7500 (Applied Biosystems) using the RT2 SYBR® Green qPCR Mastermix (Qiagen) according to manufacturer's instructions. Data analysis was performed using the Qiagen's integrated web-based software package for the PCR Array System, which automatically performs all ΔΔCt based fold-change calculations from raw threshold cycle data.

COc1cc2c(cc1OC)[C@@H](Cc1ccc(Oc3cc(C[C@H]4NCCc5cc(OC)c(OC)cc54)ccc3O)cc1)N(C)CC2 [N-desmethyldauricine]
clearance of overexpressed EGFP-tagged mutant huntingtin [1]: enhance the clearance | gene regulation during autophagy induction (HeLa cells): regulation of a panel of genes, i.e. Igf1, Fam176a, Ulk1, PERK, Cxcr4 and p62
